Values of other authors as cited in article PMC7904743, “WIDOCK: a reactive docking protocol for virtual screening of covalent inhibitors” (Journal of Computer-Aided Molecular Design, 2021).
Where two headings read alike, the source gives them in different places.

Tests used:
OTUB2 = conditions: experimental actives if % labeling higher than 50%, cited from earlier work
NUDT7 = conditions: protein labeling at 200 μM; experimental actives if % labeling higher than 50%; cited from earlier work
[1] = thiol reactivity, cited from earlier work
[2] = natural log of average rate constant
[3] = natural logarithm of average rate constant
[4] = natural log of average kinetic rate constant

SMILES	OTUB2 % labeling (OTUB2) [%]	NUDT7 % labeling (NUDT7) [%]	ln(avg k) [1, 2]	ln(avg k) [1, 3]	OTUB2 % labeling (OTUB2; OTUB2 protein labeling) [%]	ln(avg k) [1, 4]
C=CCNC(=O)NC(=O)CCl [PCM-0102709, C=CCNC(=O)NC(=O)CCl]	0	0	-16.210	-16.210	–	–
CC(c1ccccc1)N1CCN(C(=O)CCl)CC1 (centres unmarked) [PCM-0102710, CC(c1ccccc1)N1CCN(C(=O)CCl)CC1]	12	0	-15.723	-15.723	–	–
CN(CCC#N)C(=O)CCl [PCM-0102712, CN(CCC#N)C(=O)CCl]	0	0	-15.839	-15.839	–	–
CN(CC1CC1)C(=O)CCl [PCM-0102714, CN(CC1CC1)C(=O)CCl]	0	0	-16.302	-16.302	–	–
COc1cccc(C2CCCN2C(=O)CCl)c1 (centres unmarked) [PCM-0102716, COc1cccc(C2CCCN2C(=O)CCl)c1]	9	68	-15.631	-15.631	–	–
O=C(CCl)NCc1ccc(F)cc1C(F)(F)F [PCM-0102733, O=C(CCl)NCc1ccc(F)cc1C(F)(F)F]	33	6	-16.673	-16.673	–	–
COC(=O)C1(NC(=O)CCl)CCCCC1 [PCM-0102734, COC(=O)C1(NC(=O)CCl)CCCCC1]	0	0	-16.826	-16.826	–	–
C#Cc1cccc(NC(=O)CCl)c1 [PCM-0102735, C#Cc1cccc(NC(=O)CCl)c1]	–	0	-17.384	–	9	-17.384
CC(C)(C)c1nnc(NC(=O)CCl)s1 [PCM-0102736, CC(C)(C)c1nnc(NC(=O)CCl)s1]	–	0	-15.861	–	0	-15.861
O=C(CCl)Nc1ccc2c(c1)OC(F)(F)O2 [PCM-0102738, O=C(CCl)Nc1ccc2c(c1)OC(F)(F)O2]	–	0	-15.810	–	41	-15.810
O=C(CCl)N1CCN(Cc2ccsc2)CC1 [PCM-0102739, O=C(CCl)N1CCN(Cc2ccsc2)CC1]	–	7	-15.640	–	0	-15.640
Cc1ccc(S(N)(=O)=O)cc1NC(=O)CCl [PCM-0102744, Cc1ccc(S(N)(=O)=O)cc1NC(=O)CCl]	–	0	-16.170	–	10	-16.170
O=C(CCl)N(C1=CCCCC1)C1CC1 [PCM-0102745, O=C(CCl)N(C1=CCCCC1)C1CC1]	–	0	-16.466	–	0	-16.466
O=C(CCl)Nc1oncc1-c1ccccc1 [PCM-0102746, O=C(CCl)Nc1oncc1-c1ccccc1]	–	0	-16.489	–	64	-16.489
CN(Cc1cccc(F)c1)C(=O)CCl [PCM-0102747, CN(Cc1cccc(F)c1)C(=O)CCl]	–	0	-16.175	–	0	-16.175
CC(C)N1CCC(NC(=O)CCl)CC1 [PCM-0102748, CC(C)N1CCC(NC(=O)CCl)CC1]	–	0	-15.792	–	0	-15.792
O=C(CCl)N1CCOCC1 [PCM-0102749, O=C(CCl)N1CCOCC1]	–	0	-17.466	–	0	-17.466
CC1CN(c2ccc(NC(=O)CCl)cc2)CC(C)O1 (centres unmarked) [PCM-0102750, CC1CN(c2ccc(NC(=O)CCl)cc2)CC(C)O1]	–	0	-15.710	–	24	-15.710

SMILES	OTUB2 % labeling (OTUB2) [%]	NUDT7 % labeling (NUDT7) [%]	ln(avg k) [1, 2]	ln(avg k) [1, 3]	OTUB2 % labeling (OTUB2; OTUB2 protein labeling) [%]	ln(avg k) [1, 4]
O=C(CCl)N1CCCCCC1 [PCM-0102751, O=C(CCl)N1CCCCCC1]	–	0	-16.327	–	0	-16.327
O=C(CCl)NC(=O)NCc1cccs1 [PCM-0102753, O=C(CCl)NC(=O)NCc1cccs1]	–	0	-15.984	–	23	-15.984
CC(NC(=O)CCl)C(=O)N(C)C (centres unmarked) [PCM-0102754, CC(NC(=O)CCl)C(=O)N(C)C]	–	0	-16.933	–	0	-16.933
O=C(CCl)N(c1ccccc1)C1CCS(=O)(=O)C1 (centres unmarked) [PCM-0102755, O=C(CCl)N(c1ccccc1)C1CCS(=O)(=O)C1]	–	17	-15.253	–	0	-15.253
CN(CC1COc2ccccc2O1)C(=O)CCl (centres unmarked) [PCM-0102756, CN(CC1COc2ccccc2O1)C(=O)CCl]	–	16	-15.581	–	6	-15.581
NC(=O)c1ccccc1NC(=O)CCl [PCM-0102758, NC(=O)c1ccccc1NC(=O)CCl]	–	0	-15.095	–	0	-15.095
Cc1ccc(S(=O)(=O)N2CCN(C(=O)CCl)CC2)cc1 [PCM-0102759, Cc1ccc(S(=O)(=O)N2CCN(C(=O)CCl)CC2)cc1]	–	12	-15.424	–	0	-15.424
O=C(CCl)N(C1CCCCC1)C1CCS(=O)(=O)C1 (centres unmarked) [PCM-0102760, O=C(CCl)N(C1CCCCC1)C1CCS(=O)(=O)C1]	–	8	-15.274	–	0	-15.274
O=C(CCl)Nc1cc(Cl)ccc1F [PCM-0102762, O=C(CCl)Nc1cc(Cl)ccc1F]	–	0	-15.818	–	13	-15.818
COc1ccc(Cl)cc1C(=O)NNC(=O)CCl [PCM-0102763, COc1ccc(Cl)cc1C(=O)NNC(=O)CCl]	–	10	-16.746	–	64	-16.746
COC(=O)c1ccc(Cl)c(NC(=O)CCl)c1 [PCM-0102764, COC(=O)c1ccc(Cl)c(NC(=O)CCl)c1]	–	7	-16.022	–	29	-16.022
CSc1ccc(NC(=O)CCl)cc1 [PCM-0102772, CSc1ccc(NC(=O)CCl)cc1]	–	13	-15.893	–	28	-15.893
CC(C)(C)C(NC(=O)CCl)c1cccs1 (centres unmarked) [PCM-0102773, CC(C)(C)C(NC(=O)CCl)c1cccs1]	–	9	-16.457	–	0	-16.457
Cc1ccc(-c2nnc(C)[nH]2)c(NC(=O)CCl)c1 [PCM-0102775, Cc1ccc(-c2nnc(C)[nH]2)c(NC(=O)CCl)c1]	–	13	-16.632	–	0	-16.632
O=C(CCl)NNC(=O)C1CC1 [PCM-0102776, O=C(CCl)NNC(=O)C1CC1]	–	0	-17.370	–	23	-17.370
Cc1noc(C)c1CNC(=O)CCl [PCM-0102780, Cc1noc(C)c1CNC(=O)CCl]	–	11	-16.766	–	0	-16.766
O=C(CCl)N1CCC(C(=O)N2CCCCCC2)CC1 [PCM-0102781, O=C(CCl)N1CCC(C(=O)N2CCCCCC2)CC1]	–	0	-15.500	–	0	-15.500
